The results in this text go back to patent US4305954A, “Antiinflammatory 3,4-dihydro(or 1,4-dihydro)-2-[(substituted)thio]-[1]benzopyrano[3,4-d]imidazoles and their corresponding sulfoxides and sulfones” (E. I. Du Pont de Nemours and Company, priority 1981, dated 1981).

The subject of the assay is adjuvant-induced arthritis in rats. Kind of assay: Established adjuvant-induced arthritis in rats. The format is in vivo, rat (Charles River Lewis male rats). The settings on record: for ED50: Rattus norvegicus, 24 h, read-out: Adjuvant Arthritis ED50; for % reduction at the indicated dose (paw volume, Adjuvant Arthritis): 9 mg/kg.
Setting [1] is: oral by gavage, 7 daily doses, ED50% decrease from control paw volume (uninjected left hind paw), read one day after last dose.

Where two headings read alike, the source gives them in different places.

`CC(=O)Oc1ccccc1C(=O)O` [Aspirin, aspirin, reference compound]: the ED50 (po) was 305 mg/kg.
With `FC(F)C(F)(F)Sc1nc2c([nH]1)COc1cc(Cl)c(Cl)cc1-2` [Example 1, 7,8-Dichloro-3,4-dihydro(or 1,4-dihydro)-2-[(1,1,2,2-tetrafluoroethyl)-thio]-[1]benzopyrano[3,4-d]imidazole], the ED50 under setting [1] is 8.2 mg/kg.
`O=S(=O)(c1nc2c([nH]1)COc1cc(Cl)c(Cl)cc1-2)C(F)(F)C(F)F` [Example 2, 7,8-Dichloro-3,4-dihydro(or 1,4-dihydro)-2-[(1,1,2,2-tetrafluoroethyl)sulfonyl]-[1]benzopyrano[3,4-d]imidazole]: the ED50 under setting [1] is 3.1 mg/kg.
For the compound `FC(F)C(F)(F)Sc1nc2c([nH]1)COc1ccc(Cl)cc1-2` [Example 4], under setting [1], the ED50 was greater than 9 mg/kg. In addition, the “% reduction at the indicated dose (paw volume, Adjuvant Arthritis)” value (oral by gavage, 7 daily doses) is 30%.
Take `Fc1ccc2c(c1)OCc1[nH]c(SC(F)(F)C(F)F)nc1-2` [Example 5]: under setting [1], the ED50 was found to be 50 mg/kg.
With `O=S(=O)(c1nc2c([nH]1)COc1cc(F)ccc1-2)C(F)(F)C(F)F` [Example 6], the ED50 under setting [1] is greater than 9 mg/kg. Also, where the note is “oral by gavage, 7 daily doses”, the “% reduction at the indicated dose (paw volume, Adjuvant Arthritis)” value is 22%.
For the compound `CC(C)Cc1ccc(C(C)C(=O)O)cc1` (centres unmarked) [Ibuprofen, ibuprofen, reference compound], the ED50 under setting [1] was determined as 100 mg/kg.
`COc1ccc2c(c1)c(CC(=O)O)c(C)n2C(=O)c1ccc(Cl)cc1` [Indomethacin, indomethacin, reference compound]: the 50% effective dose (ED50) (po) was determined as 0.3 mg/kg.
`CCCCC1C(=O)N(c2ccccc2)N(c2ccccc2)C1=O` [Phenylbutazone, phenylbutazone, reference compound]: under setting [1], the ED50 turned out to be 10 mg/kg.

By ED50 is commonly meant the dose at which the effect has come halfway, by size or by number of responders.
